Laboratory results from ChEMBL document CHEMBL3046942, “Synthesis and biological activity of new cycloalkylthiophene-Schiff bases and their Cr(III) and Zn(II) complexes” (2010).
Active and inactive are the calls of the source. The calls are words filed in the database; no cut-off is given here.

Key:
Pseudomonas putida [1] = test: Antibacterial activity against Pseudomonas putida at 5 ug after 24 hr by agar well diffusion method; format: functional; conditions: read-out: DIZ
Listeria monocytogenes [2] = test: Antibacterial activity against Listeria monocytogenes ATCC 19115 at 5 ug after 24 hr by agar well diffusion method; format: functional; conditions: ATCC 19115, 24 h, read-out: DIZ
Shigella boydii [3] = test: Antibacterial activity against Shigella boydii type 6 RSKK-96043 at 5 ug after 24 hr by agar well diffusion method; format: functional; conditions: type 6 RSKK-96043, 24 h, read-out: DIZ
Shigella boydii [4] = test: Antibacterial activity against Shigella boydii type 16 at 5 ug after 24 hr by agar well diffusion method; format: functional; conditions: type 16, 24 h, read-out: DIZ
Shigella boydii [5] = test: Antibacterial activity against Shigella boydii type 11 at 5 ug after 24 hr by agar well diffusion method; format: functional; conditions: type 11, 24 h, read-out: DIZ
Salmonella typhimurium [6] = test: Antibacterial activity against Salmonella enterica subsp. enterica serovar Typhi H NCTC 901.8394 at 5 ug after 24 hr by agar well diffusion method; format: functional; conditions: H NCTC 901.8394, 24 h, read-out: DIZ
Proteus [7] = test: Antibacterial activity against Proteus OX2 Wrah at 5 ug after 24 hr by agar well diffusion method; format: functional; conditions: read-out: DIZ
Staphylococcus aureus [8] = test: microbe, parasite or virus in culture; conditions: ATCC 25923, 24 h, read-out: DIZ
Shigella boydii [9] = test: Antibacterial activity against Shigella boydii type 6 RSKK-96043 at 30 ug after 24 hr by agar well diffusion method; format: functional; conditions: type 6 RSKK-96043, 24 h, read-out: DIZ
Shigella boydii [10] = test: Antibacterial activity against Shigella boydii type 16 at 30 ug after 24 hr by agar well diffusion method; format: functional; conditions: type 16, 24 h, read-out: DIZ
Shigella boydii [11] = test: Antibacterial activity against Shigella boydii type 11 at 30 ug after 24 hr by agar well diffusion method; format: functional; conditions: type 11, 24 h, read-out: DIZ
Salmonella typhimurium [12] = test: Antibacterial activity against Salmonella enterica subsp. enterica serovar Typhi H NCTC 901.8394 at 30 ug after 24 hr by agar well diffusion method; format: functional; conditions: H NCTC 901.8394, 24 h, read-out: DIZ
Proteus [13] = test: Antibacterial activity against Proteus OX2 Wrah at 30 ug after 24 hr by agar well diffusion method; format: functional; conditions: read-out: DIZ
Pseudomonas putida [14] = test: Antibacterial activity against Pseudomonas putida at 30 ug after 24 hr by agar well diffusion method; format: functional; conditions: read-out: DIZ
Escherichia coli [15] = test: Antibacterial activity against Escherichia coli ATCC 1280 at 30 ug after 24 hr by agar well diffusion method; format: functional; conditions: ATCC 1280, 24 h, read-out: DIZ
Listeria monocytogenes [16] = test: Antibacterial activity against Listeria monocytogenes ATCC 19115 at 30 ug after 24 hr by agar well diffusion method; format: functional; conditions: ATCC 19115, 24 h, read-out: DIZ
Staphylococcus aureus [17] = test: Antibacterial activity against Staphylococcus aureus ATCC 25923 at 30 ug after 24 hr by agar well diffusion method; format: functional; conditions: ATCC 25923, 24 h, read-out: DIZ
Candida albicans = test: Antifungal activity against Candida albicans Y-1200-NIH at 0.25 ug/ml after 24 hr by agar well diffusion method; format: functional; conditions: read-out: DIZ
Brucella abortus = test: Antibacterial activity against Brucella abortus RSKK-03026 at 0.25 ug/ml after 24 hr by agar well diffusion method; format: functional
Shigella boydii [18] = test: Antibacterial activity against Shigella boydii type 6 RSKK-96043 at 0.25 ug/ml after 24 hr by agar well diffusion method; format: functional; conditions: type 6 RSKK-96043, 24 h, read-out: DIZ
Shigella boydii [19] = test: Antibacterial activity against Shigella boydii type 16 at 0.25 ug/ml after 24 hr by agar well diffusion method; format: functional; conditions: type 16, 24 h, read-out: DIZ
Shigella boydii [20] = test: Antibacterial activity against Shigella boydii type 11 at 0.25 ug/ml after 24 hr by agar well diffusion method; format: functional; conditions: type 11, 24 h, read-out: DIZ
Salmonella typhimurium [21] = test: Antibacterial activity against Salmonella enterica subsp. enterica serovar Typhi H NCTC 901.8394 at 0.25 ug/ml after 24 hr by agar well diffusion method; format: functional; conditions: H NCTC 901.8394, 24 h, read-out: DIZ
Proteus [22] = test: Antibacterial activity against Proteus OX2 Wrah at 0.25 ug/ml after 24 hr by agar well diffusion method; format: functional
Escherichia coli [23] = test: Antibacterial activity against Escherichia coli ATCC 1280 at 0.25 ug/ml after 24 hr by agar well diffusion method; format: functional; conditions: ATCC 1280, 24 h, read-out: DIZ
Pseudomonas putida [24] = test: Antibacterial activity against Pseudomonas putida at 0.25 ug/ml after 24 hr by agar well diffusion method; format: functional
Listeria monocytogenes [25] = test: Antibacterial activity against Listeria monocytogenes ATCC 19115 at 0.25 ug/ml after 24 hr by agar well diffusion method; format: functional
Staphylococcus aureus [26] = test: Antibacterial activity against Staphylococcus aureus ATCC 25923 at 0.25 ug/ml after 24 hr by agar well diffusion method; format: functional; conditions: ATCC 25923, 24 h, read-out: DIZ

With O=C(O)c1cn(C2CC2)c2cc(N3CCNCC3)c(F)cc2c1=O [CIPROFLOXACIN] the zone of inhibition at 5 µg/disc (Pseudomonas putida [1]) was 20 mm, the zone of inhibition at 5 µg/disc (Listeria monocytogenes [2]) was 17 mm and the zone of inhibition at 5 µg/disc (Shigella boydii [3]) was 30 mm. For the same compound, the zone of inhibition at 5 µg/disc (Shigella boydii [4]) was 20 mm, the zone of inhibition at 5 µg/disc (Shigella boydii [5]) was 25 mm and the zone of inhibition at 5 µg/disc (Salmonella typhimurium [6]) was 23 mm. It also gave a zone of inhibition at 5 µg/disc (Proteus [7]) of 27 mm and a zone of inhibition at 5 µg/disc (Staphylococcus aureus [8]) of 25 mm.
With O=C(N[C@H](CO)[C@H](O)c1ccc([N+](=O)[O-])cc1)C(Cl)Cl [CHLORAMPHENICOL] the zone of inhibition at 30 µg/disc (Shigella boydii [9]) was 18 mm, the zone of inhibition at 30 µg/disc (Shigella boydii [10]) was 22 mm and the zone of inhibition at 30 µg/disc (Shigella boydii [11]) was 18 mm. For the same compound, the zone of inhibition at 30 µg/disc (Salmonella typhimurium [12]) was 19 mm, the zone of inhibition at 30 µg/disc (Proteus [13]) was 27 mm and the zone of inhibition at 30 µg/disc (Pseudomonas putida [14]) was 12 mm. For the same compound, the zone of inhibition at 30 µg/disc (Escherichia coli [15]) was 30 mm, the zone of inhibition at 30 µg/disc (Listeria monocytogenes [16]) was 18 mm and the zone of inhibition at 30 µg/disc (Staphylococcus aureus [17]) was 25 mm.
CCOC(=O)c1c(/N=C/c2c(O)ccc3ccccc23)sc2c1CCCCC2 showed a zone of inhibition at 0.25 µg/mL (Candida albicans) of 11 mm, a zone of inhibition at 0.25 µg/mL (Brucella abortus; RSKK-03026, 24 h, read-out: DIZ) of 5 mm and a zone of inhibition at 0.25 µg/mL (Shigella boydii [18]) of 7 mm. The zone of inhibition at 0.25 µg/mL (Shigella boydii [19]) was 8 mm, the zone of inhibition at 0.25 µg/mL (Shigella boydii [20]) was 8 mm and the zone of inhibition at 0.25 µg/mL (Salmonella typhimurium [21]) was 8 mm. The “diameter of the inhibition zone (DIZ)” value (Proteus [22]) was “inactive”, the zone of inhibition at 0.25 µg/mL (Escherichia coli [23]) was 9 mm and the “diameter of the inhibition zone (DIZ)” value (Pseudomonas putida [24]) was “inactive”. The “diameter of the inhibition zone (DIZ)” value (Listeria monocytogenes [25]) was “inactive” and the zone of inhibition at 0.25 µg/mL (Staphylococcus aureus [26]) was 9 mm.
For CCOC(=O)c1c(/N=C/c2c(O)ccc3ccccc23)sc2c1CCC2, the zone of inhibition at 0.25 µg/mL (Candida albicans) was 14 mm, the “diameter of the inhibition zone (DIZ)” value (Brucella abortus) was “inactive” and the zone of inhibition at 0.25 µg/mL (Shigella boydii [18]) was 6 mm. It also gave a zone of inhibition at 0.25 µg/mL (Shigella boydii [19]) of 7 mm, a zone of inhibition at 0.25 µg/mL (Shigella boydii [20]) of 8 mm and a zone of inhibition at 0.25 µg/mL (Salmonella typhimurium [21]) of 6 mm. It also gave a zone of inhibition at 0.25 µg/mL (Proteus [22]; read-out: DIZ) of 5 mm, a zone of inhibition at 0.25 µg/mL (Escherichia coli [23]) of 6 mm and a zone of inhibition at 0.25 µg/mL (Pseudomonas putida [24]; read-out: DIZ) of 8 mm. For the same compound, the zone of inhibition at 0.25 µg/mL (Listeria monocytogenes [25]; ATCC 19115, 24 h, read-out: DIZ) was 7 mm and the zone of inhibition at 0.25 µg/mL (Staphylococcus aureus [26]) was 14 mm.
Work on NC[C@H]1O[C@H](O[C@H]2[C@H](O)[C@@H](O[C@H]3O[C@H](CO)[C@@H](O)[C@H](N)[C@H]3O)[C@H](N)C[C@@H]2N)[C@H](O)[C@@H](O)[C@@H]1O [KANAMYCIN] yielded a zone of inhibition at 30 µg/disc (Shigella boydii [9]) of 15 mm, a zone of inhibition at 30 µg/disc (Shigella boydii [10]) of 16 mm and a zone of inhibition at 30 µg/disc (Shigella boydii [11]) of 14 mm. It also gave a zone of inhibition at 30 µg/disc (Salmonella typhimurium [12]) of 20 mm, a zone of inhibition at 30 µg/disc (Proteus [13]) of 25 mm and a zone of inhibition at 30 µg/disc (Pseudomonas putida [14]) of 14 mm. The zone of inhibition at 30 µg/disc (Escherichia coli [15]) was 25 mm, the zone of inhibition at 30 µg/disc (Listeria monocytogenes [16]) was 15 mm and the zone of inhibition at 30 µg/disc (Staphylococcus aureus [17]) was 25 mm.
